Series [1] has as its system PLP injected animals (acute EAE, model for MS). Briefly: Acute EAE induced with PLP 139-151, clinical signs scoring. The series is classed as in vivo, SJL female mice.
The test system of a further series is PC12 neurons. Description: MPP+ toxicity experiment, LDH leakage assay in NGF-differentiated PC12 cells. The series is classed as cell-based. Here is the method: PC12 cells were grown in Dulbecco's modified Eagle's medium (DMEM), supplemented with 7% fetal calf serum, 7% horse serum, 100 μg/ml streptomycin, and 100 U/ml penicillin. The cultures were maintained in an incubator at 37° C. in a humidified atmosphere of 6% CO2. The growth medium was changed twice weekly and the cultures were split at 1:6 ratio once a week [Abu-Raya et al. J. Neurosci. Methods 50:197-203 (1993)].
For differentiation, an identical number of PC12 cells (3.75×10^5 cells) was plated on 6-wells plates coated with rat tail type I collagen (0.1 mg/ml) to promote cell adhesion [Abu-Raya et al Rasagiline, a monoamine oxidase-B inhibitor, protects NGF-differentiated PC12 cells against oxygen-glucose deprivation. J. Neurosci. Res. 58:456-463 (1999)]. The differentiation of the cultures was induced by treatment with NGF (50 ng/ml), added every 48 hr for a period of 7-8 days.
Cell death was evaluated by measuring the leakage of LDH into the growth medium as previously described [Abu-Raya et al. J. Neurosci. Res. 58:456-463, (1999)]. Samples of 50 μl of the growth medium were collected from each well and centrifuged at 3,500 rpm for 5 min at 25° C.; the supernatant was collected and LDH release was measured using a TRACE LD-L reagent. LDH activity was determined using an ELISA reader (TECAN, SPECTRAFluor PLUS, Grodig, Salzburg, Austria) at 340 nm by following the rate of conversion of oxidized nicotinamide adenine dinucleotide (NAD^+) to the reduced form of (NADH). MPP^+-induced LDH release was expressed as 100% of toxicity compared to control-untreated cultures. Each experiment was performed three times in duplicates (n=6).
On the day of the experiment, the NGF containing medium was replaced with fresh one. […]
MPP^+ was dissolved in growth medium containing NGF and added to each well in a final concentration of 1500 μM. […] The experiment was accomplished when percentage of cell death was in the range 30-60%, measured by the release of LDH into the medium. […]
Background: LDH leaks from cells whose membrane has failed.

Structures are written as SMILES.

Take `CC1(C)CC(N)CC(C)(C)N1[O]` [TMN, 2,2,6,6-tetramethylpiperidine-4-amino-1-oxyl]: the “effect on clinical signs of MS, in words” value in series [1] (SSL-TMN i.v., 80 nm, compared with Copaxone, Betaferon, empty SSL, free TMN, FIG. 2) is “no observed effect against the disease”. For the same compound, in series [1] (Table 4B), the “#dead” value worked out at 1, the MDD amounted to 19 ± 1.2, the MDO is on record as 14 ± 0.5 and the MMS is 3.9 ± 0.53. The compound also registered a Mean score in series [1] (Table 4B) of 3.5 ± 0.21. In series [1] (Table 4B, free TMN at same concentration as encapsulated in the liposomes), the Incidence is 5/5. Besides, the “toxicity to the cells at higher concentration (bell shape)” value in the series with PC12 neurons (500 μM-1000 μM TMN) is on record as “toxic to the cells”. For the same compound, the “protection of PC12 neurons from oxidative damage inflicted by MPP+ (LDH release)” value in the series with PC12 neurons (1500 μM MPP+, TMN 0.1-100 μM added 1 hr before, LDH after 48 hr, FIG. 1) is “protects PC12 neurons from oxidative damage”. For the same compound, the “most effective TMN concentration for protection against MPP+” value in the series with PC12 neurons (1500 μM MPP+, dose response 0.1-1000 μM) is 100 µM.

Values taken from US20080063702A1, “Liposomal Formulations Comprising an Amphipathic Weak Base Like Tempamine for Treatment of Neurodegenerative Conditions” (priority 2004, published 2008).
